Data as given in patent US8906432B2, “Compositions comprising an NFκB-inhibitor and a non-retinoid collagen promoter” (Johnson & Johnson Consumer Companies, Inc., priority 2009, dated 2014).

Legend:
NFκB = test: NFκB-INHIBITION TEST (NF-kB gene reporter, TNFα-stimulated FB293 cells, luciferase); format: cell-based; details: Homo sapiens, 24 h; series of substituted resorcinols, each 10 ug/ml (Table 2); read-out: Percent NF-kB Inhibition
Protocol: The NFκB-INHIBITION TEST is conducted in the following manner. FB293 cells, a stable transfected human epithelial cell line containing the gene reporter for NF-kB are used. They may be obtained from, e.g., Panomics (Fremont, Calif.). FB293 are plated at a density of 5×10^4 cells/mL in a suitable medium, e.g., Dulbecco's modified Eagle's medium (DMEM) supplemented with 10% fetal bovine serum (Invitrogen, San Diego, Calif.). The FB293 cells are stimulated with 100 ng/mL of Tumor Necrosis Factor-α(TNFα, available from Sigma-Aldrich of St Louis, Mo.) in the presence of the test sample. Separately, a control sample is tested wherein no test sample is applied. Following a 24-hour incubation at 37° C. with 5% CO2, cells are lysed with 40 μl of reporter lysis buffer (Promega, Madison, Wis.). A […] aliquot of the lysate is assayed using a luciferase assay kit (Promega) and counted for 10 s in a Lmax luminometer (Molecular Devices, Sunnyvale, Calif.) with the data represented as the relative light unit/second. Percent NFκB Inhibition of the test sample is calculated as: NFκB Inhibition=[1−(Lsample/Lcontrol)]*100 where Lsample is the luminescence of the sample and Lcontrol is the luminescence of the control. […]

Collagen 1A promoter = test: COLLAGEN PROMOTER ASSAY (Collagen 1A promoter-luciferase reporter in H9C2 cells); format: cell-based, rat; details: 1 ug/ml of each active (on active basis), transfected H9C2 cells, 24 hours; for Percent Change Over Vehicle (collagen promotion): vehicle DMSO 0.01%
Protocol: Suitable non-retinoid collagen promoters may be determined, for example, using the COLLAGEN PROMOTER ASSAY. The COLLAGEN PROMOTER ASSAY is performed as follows. Rat cardiac myoblasts H9C2, which may be purchased from ATCC (Manassas, Va.), are used. Cultures are maintained in Dulbecco's modified Eagle's medium (DMEM, Invitrogen Life Technologies, Carlsbad, Calif.) supplemented with 10% fetal bovine serum, 2 mM glutamine, 100 units/ml penicillin, and 50 ug/ml streptomycin (Invitrogen life technologies, Carlsbad, Calif.). Cell cultures are transiently transfected with the Collagen 1A promoter-luciferase reporter construct, driving the firefly luciferase gene, which may obtained for example from PREMAS Biotech Pvt. Ltd (Haryana, India). In all transfections, a construct with the thymidine kinase promoter and the Renilla luciferase reporter gene (pRL-TK, Promega, Madison, Wis.) is included as an internal control. Cells grown in 48-well plates are transfected with 0.45 ug total DNA per well using Lipofectamine 2000 (Invitrogen life technologies, Carlsbad, Calif.). One day after transfection, cells are treated with agents at the indicated concentrations for approximately 24 hours before they are lysed for luciferase assays, using Dual-Luciferase Reporter System from Promega (Madison, Wis.), following manufacturer's protocol. The firefly luciferase activity is measured first (representing collagen promoter activity), followed by the renilla luciferase (internal control), using luminometer LMAX, from Molecular Devices (Sunnyvale, Calif.). The ratio of these two luciferase activities (RLU) is used to evaluate the activity of each promoter.
The COLLAGEN PROMOTER ASSAY was performed on the following compounds: Tanacetum parthenium (parthenolide-free feverfew extract from Integrated Botanical Technologies of Ossining, N.Y.) and 4-hexylresorcinol (Synovea HR, from Sytheon Ltd). The compounds were diluted in cell culture media (DMEM Media of Invitrogen, San Diego Calif.) to the concentration of “active” extract as indicated in Table 3 below. […]

| SMILES | inhibition at 10 µg/mL (NFκB) | Percent Change Over Vehicle (collagen promotion) (Collagen 1A promoter) | Percent Change Over Vehicle (collagen promotion) (Collagen 1A promoter; listed as 4-hexylresorcinol) | Collagen 1A Promoter Activity (Collagen 1A promoter; vehicle control = 1.00) |
| --- | --- | --- | --- | --- |
| CCCCCCCCCCCC1c2cc(c(O)cc2O)C(CCCCCCCCCCC)c2cc(c(O)cc2O)[C@H](CCCCCCCCCCC)c2cc(c(O)cc2O)[C@H](CCCCCCCCCCC)c2cc1c(O)cc2O (stereo partly shown) [C-Undecylcalix[4]-resorcinarene] | 4.87% |  |  |  |
| CCCCCCc1ccc(O)cc1O [4-Hexylresorcinol] |  | −3% | −3% | 0.97 ± 0.17 |
